{
  "source": "patent US9555014B2",
  "about": "“Therapeutic regimens” (Radius Health, Inc., priority 2010, dated 2017)",
  "key": {"[1]": {"system": "mammary carcinoma cells (MCF-7)", "experiment": "Estrogen-dependent proliferation of MCF-7 cells (preclinical data)", "assay_type": "cell-based", "description": "The results of a phase 2a clinical study assessing the effects of the selective estrogen receptor modulator (SERM) (R)-6-(2-(ethyl(4-(2-(ethylamino)ethyl)benzyl)amino)-4-methoxyphenyl)-5,6,7,8-tetrahydronaphthalen-2-ol on women suffering from hot flushes are reported herein."}, "[2]": {"system": "postmenopausal women with frequent, moderate to severe vasomotor symptoms (hot flashes)", "experiment": "Phase 2a study: hot flash frequency, severity and composite score", "assay_type": "in vivo, human (postmenopausal women)", "details": "10 mg", "description": "A phase 2a study was undertaken to assess the effect of (R)-6-(2-(ethyl(4-(2-(ethylamino)ethyl)benzyl)amino)-4-methoxyphenyl)-5,6,7,8-tetrahydronaphthalen-2-ol dihydrochloride (referred to as “drug” in tables below) to alleviate hot flashes in postmenopausal women. The study design and objectives are detailed below.\nThis is a randomized, placebo-controlled, double-blind, parallel-group, Phase 2, multi-center, dose-finding study to evaluate the effects of (R)-6-(2-(ethyl(4-(2-(ethylamino)ethyl)benzyl)amino)-4-methoxyphenyl)-5,6,7,8-tetrahydronaphthalen-2-ol dihydrochloride in the treatment of vasomotor symptoms in postmenopausal women.\nA total of 100 eligible patients will be randomized to receive one of 5 blinded treatment regimens. (R)-6-(2-(ethyl(4-(2-(ethylamino)ethyl)benzyl)amino)-4-methoxyphenyl)-5,6,7,8-tetrahydronaphthalen-2-ol dihydrochloride at doses 0, 10, 25, 50 or 100 mg will be dosed for 28-days.\nPatients will document in real time hot flash frequency and severity according to a predetermined scale, in the provided electronic or paper Study Diary. Study Diary entries of hot flash frequency and severity and associated symptoms will be reviewed at each study visit. Serum markers of estrogen effect will be measured at specific study visits while on treatment.\nThe efficacy endpoints assessed are: • Change in frequency of hot flashes over time • Change in severity of hot flashes over time; • Change in composite score of hot flashes over time (frequency×severity)\n(R)-6-(2-(ethyl(4-(2-(ethylamino)ethyl)benzyl)amino)-4-methoxyphenyl)-5,6,7,8-tetrahydronaphthalen-2-ol dihydrochloride was provided by sponsor in capsule form for oral administration. All doses (0, 10, 25, 50 and 100 mg) were provided as identical presentations. Each patient was provided with 2 containers of 28-capsules each at the start of treatment and took one capsule from each container every day for 28-days. Placebo contained the same excipients as active medication, but without (R)-6-(2-(ethyl(4-(2-(ethylamino)ethyl)benzyl)amino)-4-methoxyphenyl)-5,6,7,8-tetrahydronaphthalen-2-ol dihydrochloride. The patients were instructed to take the capsules orally in the fasted state (morning).\nChanges in the efficacy endpoints of frequency, severity, and composite score of hot flashes over time; associated hot flash symptoms (palpitations, insomnia, joint aches, and headaches), PD markers of estrogen effect (FSH, LH, and lipid profile), drug levels, and MRS were to be summarized using descriptive statistics. Frequency, severity, and composite score of hot flashes over time were to be analyzed using repeated measures analysis of variance (ANOVA) with factors for treatment (treatment groups), time (study day) and their interaction. A linear trend test for treatment groups (placebo, and 10, 25, 50, 100 mg doses of drug) and for study day as well as any potential interaction between the two was to be included as part of the analyses by including both dose and time as continuous variables in the ANOVA model. Pair-wise comparisons of change from baseline were to be tested between the placebo group and each drug dose group for each timepoint; the mean difference together with a 95% confidence interval of the difference was to be presented for placebo compared with each active treatment group. Nominal p-values at Week 4 were to be presented. In addition, graphical presentations of mean (±standard error of the mean) and percent group responses over time together with repeated measures ANOVA to assess potential trend in responses over time in each dose group were to be presented. For the associated vasomotor symptoms (palpitations, insomnia, joint aches, and headaches collected in the patient diaries), patient and event frequencies were to be summarized by treatment week and treatment group.\nHot flashes were also scored according to their severity with a mild hot flash scored a “1”, a moderate hot flash scored a “2” and a severe hot flash scored a “3”. […]"}},
  "data": [
    {"smiles": "CCNCCc1ccc(CN(CC)c2cc(OC)ccc2[C@@H]2CCc3cc(O)ccc3C2)cc1", "note": "[compound of formula I, (R)-6-(2-(ethyl(4-(2-(ethylamino)ethyl)-benzyl)amino)-4-methoxyphenyl)-5,6,7,8-tetrahydronaphthalen-2-ol]", "values": [
      {"measurement": "antagonism of estradiol stimulation on MCF-7 cells", "setting": "[1]", "value": "potent antagonist of estradiol stimulation"},
      {"measurement": "stimulation of estrogen-dependent proliferation of MCF-7 cells (agonism)", "setting": "[1]; compared with prototypical estrogen agonists (e.g. estradiol)", "value": "does not stimulate estrogen-dependent proliferation"},
      {"measurement": "hot flush frequency reduction", "setting": "[2]; cohort with 2 hour postdose plasma concentration 0.43 ng/mL to 0.53 ng/mL", "value": "−75", "unit": "%"},
      {"measurement": "hot flush frequency reduction", "setting": "[2]; higher concentration cohort, 2 hour postdose plasma concentration 0.66 ng/mL to 1.34 ng/mL", "value": "−77", "unit": "%"}
    ]}
  ]
}
